One block for each substance: values may come before it.
Columns and labels:
serum albumin (BSA) = serum albumin (BSA) (Bos taurus, UniProt P02769); experiment: Fluorescence test for interaction with albumin; type: binding, bovine; details: for Result F/F0 <0.5: compound/BSA weight ratio 1, excitation 280 nm, emission 350 nm; for Result F/F0 <0.5 / Result F/F0 <0.85: BSA 0.5 mg/ml, PBS pH 7.4
Experimental: The test carried out is a “fluorescence” test with albumin, which makes it posible, by measuring the variations in fluorescence of albumin, to verify whether an interaction exists between the compound tested and albumin.
The compound/albumin solutions are prepared from stock solutions of compounds and of serum albumin (BSA) by mixing the appropriate volumes in order to obtain a fixed BSA concentration at 0.5 mg/ml and compound/BSA weight ratios of 1, 5 and 10. These solutions are prepared in a PBS buffer at pH 7.4.
200 μl of the various compound/BSA solutions are introduced into a 96-well plate. The fluorescence measurements are carried out at room temperature (20° C.) with an EnVision® fluorescence spectrometer (PerkinElmer). The excitation wavelength is 280 nm and the emission wavelength is 350 nm. This corresponds to the fluorescence of the tryptophan residues of albumin (Ruiz-Peña M. et al., M, A. Physico-chemical studies of molecular interactions between non-ionic surfactants and bovine serum albumin, Colloids Surf. B Biointerfaces 2010, 75, 282-289). The F (compound/BSA)/F0 (BSA alone) ratio makes it possible to evaluate the interaction between the compound and albumin. If this ratio is less than 1, this means that the compound induces partial quenching of the albumin fluorescence linked to a change in environment of the tryptophan residues. This change reflects an interaction between the compound and albumin. It was verified, as a control, that, for all the compounds tested, the fluorescence of the compound alone is negligible considering the fluorescence of albumin (fluorescence (compound) <2% fluorescence (albumin)).

lysozyme = molecular target: T1, lysozyme (Gallus gallus, UniProt P00698); experiment: Turbidity measurement assays of compound/lysozyme solutions; type: physicochemical; details: for Turbidity of the solutions at the molar ratio 0.1: compound/lysozyme molar ratio 0.1; for Turbidity of the solutions at the molar ratio 0.1 / Turbidity of the solutions at the molar ratio 0.5: histidine buffer pH 6.2, NaCl, HACH 2100AN turbidity meter; for Turbidity of the solutions at the molar ratio 0.5: compound/lysozyme molar ratio 0.5; for turbidity of the compound/lysozyme solution compared with the counterexample/lysozyme solutions: whatever the ratio
T1 construct: purchased Sigma-Aldrich L6876
T1 sequence (P00698 19-147): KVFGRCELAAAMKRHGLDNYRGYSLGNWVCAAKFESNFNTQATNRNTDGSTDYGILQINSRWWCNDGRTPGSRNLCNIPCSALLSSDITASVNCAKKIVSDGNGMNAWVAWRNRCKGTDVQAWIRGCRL
Experimental: The turbidity of solutions in which a “model” protein, lysozyme and either a compound according to the invention or a counterexample compound are brought together is analyzed in the compound/lysozyme molar ratios of 0, 0.1 and 0.5.
The following solutions are prepared beforehand: histidine buffer solution, pH 6.2±0.1, at 194 mM (30 mg/ml), sodium chloride (NaCl) solution at 5017 mM (293 mg/ml), solution of lysozyme (Sigma-Aldrich, Ref L6876, CAS#12650-88-3) at […] ([…]), and solutions of each of the test products (pH 6.2±0.1), i.e. compounds according to the invention and counterexamples.
For each of the solutions of compounds to be prepared, 3 ml of an aqueous solution of compound are adjusted to pH 6.2±0.1 using 50±25 μl of a 0.1N hydrochloric acid (HCl) solution.
The test solutions at the compound/lysozyme molar ratios: 0, 0.1 and 0.5 are then prepared as follows.
The sodium chloride (NaCl) solution at 5017 mM, the histidine buffer solution at 194 mM and then the solution of compound are successively added to water, which results in a mixture which is homogenized on a roller mixer (Stuart Roller Mixer SRT9D) for 1 minute.
The lysozyme solution is, finally, added and then the final mixture is homogenized on the roller mixer for 1 minute.
The turbidity (expressed in NTU) for each of the final test solutions is measured using a HACH 2100AN turbidity meter.
The turbidity of the compound 1/lysozyme solution is analyzed in comparison with that of the counterexample A1/lysozyme and counterexample A2/lysozyme solutions. The turbidity of the compound 13/lysozyme solution is analyzed in comparison with that of the counterexample B1/lysozyme and counterexample B2/lysozyme solutions.

Chain of serum albumin (BSA) (P02769 25-607): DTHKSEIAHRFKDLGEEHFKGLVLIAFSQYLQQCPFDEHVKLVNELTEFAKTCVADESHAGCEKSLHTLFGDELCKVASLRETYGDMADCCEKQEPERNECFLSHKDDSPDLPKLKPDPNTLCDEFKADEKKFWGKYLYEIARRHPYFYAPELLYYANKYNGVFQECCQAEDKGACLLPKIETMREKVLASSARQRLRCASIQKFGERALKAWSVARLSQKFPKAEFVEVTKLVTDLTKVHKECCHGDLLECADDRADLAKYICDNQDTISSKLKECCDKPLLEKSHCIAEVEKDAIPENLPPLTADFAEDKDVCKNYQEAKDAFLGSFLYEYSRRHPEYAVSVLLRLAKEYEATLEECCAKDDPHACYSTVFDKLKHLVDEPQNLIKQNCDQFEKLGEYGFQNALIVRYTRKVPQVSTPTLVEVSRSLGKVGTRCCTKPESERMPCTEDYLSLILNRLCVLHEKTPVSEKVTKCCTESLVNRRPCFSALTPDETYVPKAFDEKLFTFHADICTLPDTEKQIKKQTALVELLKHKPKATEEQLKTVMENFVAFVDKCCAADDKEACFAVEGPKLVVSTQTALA

Result F/F0 <0.5 (serum albumin (BSA)): YES
Substance: Sodium maltotriosemethylcarboxylate Functionalized with 2-[(2-dodecanoylamino-6-dodecanoylamino)hexanoylamino]ethanamine [Compound 20]

Result F/F0 <0.5 (serum albumin (BSA)): YES
Substance: Sodium maltotriosemethylcarboxylate Functionalized with 2-aminoethyl dodecanoate [Compound 29]

Turbidity of the solutions at the molar ratio 0.1 (lysozyme): 55 NTU
Turbidity of the solutions at the molar ratio 0.5 (lysozyme): 4.8 NTU
turbidity of the compound/lysozyme solution compared with the counterexample/lysozyme solutions (lysozyme): lower
Substance: Sodium maltotriosemethylcarboxylate Functionalized with L-phenylalanine [Compound 1]

Result F/F0 <0.85 (serum albumin (BSA); compound/BSA weight ratio 5): YES
Result F/F0 <0.85 (serum albumin (BSA); compound/BSA weight ratio 10): YES
fluorescence ratio F/F0 (serum albumin (BSA); compound/BSA weight ratio of 5): < 0.85
fluorescence ratio F/F0 (serum albumin (BSA); compound/BSA weight ratio of 10): < 0.85
Substance: Sodium maltotriosemethylcarboxylate Functionalized with L-phenylalanine [Compound 2]

Result F/F0 <0.5 (serum albumin (BSA)): YES
Substance: Sodium maltotriosemethylcarboxylate Functionalized with N-(2-aminoethyl)dodecanamide [Compound 21]

Turbidity of the solutions at the molar ratio 0.1 (lysozyme): 32 NTU
Turbidity of the solutions at the molar ratio 0.5 (lysozyme): 395 NTU
turbidity of the compound/lysozyme solution compared with the counterexample/lysozyme solutions (lysozyme): lower
Substance: Sodium maltotriosemethylcarboxylate Functionalized with cholesteryl leucinate [Compound 13]

More lines, now with the values behind:

Substance: Sodium maltotriosemethylcarboxylate Functionalized with 2-[(2octanoylamino-6-octanoylamino)hexanoylamino]ethanamine [Compound 27]
Result F/F0 <0.5 (serum albumin (BSA)): YES

Substance: Sodium maltotriosemethylcarboxylate Functionalized with 3,7-dimethyloctanoyl phenylalaninate [Compound 30]
Result F/F0 <0.5 (serum albumin (BSA)): YES

Substance: Sodium maltotriosemethylcarboxylate Functionalized with decanoyl glycinate [Compound 23]
Result F/F0 <0.5 (serum albumin (BSA)): YES

Substance: Sodium maltotriosesuccinate Functionalized with dilauryl aspartate [Compound 22]
Result F/F0 <0.5 (serum albumin (BSA)): YES
